The text below walks through data of patent US20050187188A1, “Methods for the treatment of a traumatic central nervous system injury” (Emory University, priority 2000, published 2005).

“Also recorded” adds a separate entry of the source.

Assay [1] deals with rats with medial frontal cortical contusions. As to the kind of experiment: Cerebral edema (brain tissue water content) after medial frontal cortex contusion, Example 1. The assay is classed as in vivo, rat. As to conditions: 4 mg/kg in cyclodextrin, i.p. 1 h and s.c. 6 h post-injury; 2, 24 and 72 hours; compared to vehicle.
Experimental: Contusions to the medical frontal cortex (MFC) using a pneumatic impactor device were generated. Animals were anesthetized by injection of Nembutal (50 mg/kg, i.p) and placed in a stereotaxic apparatus, with body core temperature being maintained with a homeothermic heating blanket system. Using aseptic techniques, a midline incision was made in the scalp, and the fascia retracted to expose the cranium. A centered, bilateral craniotomy was made 3 mm anterior to bregma using a 6 mm diameter trephan. After the removal of the bone, the tip of the impactor was moved to AP:3.0; ML:0.0, checked for adequate clearance, retracted to its elevated position and lowered 3.5 mm DV, so it penetrated the cortex 2 mm. The contusion was made at a velocity of 2.25 m/s with a brain contact time of 0.5 seconds. Following this procedure, the wound cavity was thoroughly cleaned and all bleeding stopped before the fascia and scalp, were sutured closed. In all experiments, the rats' group identity was coded with regard to surgery and treatment to prevent experimenter bias during behavioral testing and later histological examination.
These experimental solutions were then diluted 1:1 with sterile water for a final concentration of HBC of 22.5%.
Sprague-Dawley male rats, approximately 90 days of age at the time of surgery, were used. Rats were housed in individual cages, with a 12:12 light:dark cycle. Food and water were provided ad libitum throughout the experiment. Control rats received sham surgeries and the rest received medial frontal cortical contusions as described in the general methods. The sham-operated controls were given vehicle (cyclodextrin). […] Treatment began one hour after the contusion was produced. […] Subsequently, a second subcutaneous injection 6 hours post-injury for absorption that is more gradual. […]
At 2, 24, and 72 hours the rats were anesthetized, decapitated, and their brains removed quickly from the cranial cavity. […] The brain was placed on a pre-weighed dish and the total weight of the sample was measured. […]
Assay [2] has as its system rats with bilateral contusions of the medial prefrontal cortex. As to the kind of experiment: Lesion size, ventricle and striatal area measurements after medial prefrontal cortex contusion, Example 6. As to conditions: 4 mg/kg in peanut oil. The assay is classed as in vivo, rat. The method, then: (§1) Male Sprague-Dawley rats (300 g) were housed individually in wire cages and kept on a reverse light-dark cycle (0800-2000 h). Animals were assigned to one of four groups: (1) lesion (n=7); (2) lesion +3 days progesterone (LP3; n=7); (3) lesion +5 days progesterone (LP5; n=7); and (4) Sham (n=8). All procedures involving animals conformed to guidelines set forth in the Guide for the Care and Use of Laboratory Animals (U.S. Department of Health and Human Services, Pub no. 85-23, 1985) and were approved by the Emory University Institutional Animal Care and Use Committee.
Bilateral contusions of the medial prefrontal cortex were created by a pneumatic impactor device as previously described. Briefly, rats were given anesthetized with ketamine/xylazine (90 mg/kg; 10 mg/kg) and placed in a stereotaxic apparatus. A craniectomy (diameter 6 mm) was made over the midline of the prefrontal cortex with its center 1.5 mm AP to bregma. After removal of the bone, the tip of the impactor (diameter 5 mm) was moved to +3.0 mm AP; 1.0 mm ML (from bregma), and checked for adequate clearance. Trauma was produced by pneumatically activating the piston to impact −2.0 mm DV (from dura) at a velocity of 3 m/s with a brain contact time of 0.5 seconds.
Progesterone was dissolved in peanut oil (Sigma; 4 mg/kg) and injections were given at 1 and 6 hours post-injury and then once per day for either 3 or 5 consecutive days. Control animals received injections of vehicle at similar time-points. Animals were coded with regard to surgery and treatment to prevent experimenter bias during behavioral testing and histological examination. […]
Mean area measurements of lesion size were quantified from sections at 15 rostral-caudal levels spaced 300 μm apart. […] Perimeters of the striatum and the lateral ventricles were also traced and mean areas were quantified from 7 rostral-caudal levels (300 μm apart).
(§2) Experienced individuals who were blind to treatment conditions of the study conducted all histological and behavioral analyses. All data were tested for normality and homoschedasticity before being analyzed by parametric analysis of variance (ANOVA). MWM results were analyzed using separate mixed-factorial (4 groups×5 days) analysis of variance (ANOVA) on each of the two 5-day testing periods (acquisition and retention respectively). Results of the BSN task were analyzed using the mixed-factorial ANOVA (4 groups×2 post-injury trials). […] Pearson r coefficients were calculated to determine whether significant correlations could be detected between histological (e.g., lesion size and cellular density) and behavioral parameters (e.g., acquisition and retention of the MWM task and measures of sensory neglect).

For assay [3] the test system is unchanged. As to the kind of experiment: Cell counts of Nissl-stained neurons (STR, GP, DMN, VMN), Example 6. The assay is classed as in vivo, rat. As to conditions: 4 mg/kg in peanut oil. Here is the method:
as §1
Bilateral contusions of the medial prefrontal cortex were created by a pneumatic impactor device as previously described. Briefly, rats were given anesthetized with ketamine/xylazine (90 mg/kg; 10 mg/kg) and placed in a stereotaxic apparatus. A craniectomy (diameter 6 mm) was made over the midline of the prefrontal cortex with its center 1.5 mm AP to bregma. […]
Cell counts were done on an Olympus BH-2 microscope equipped with an eyepiece micrometer grid (sample area=40 μm^2 at ×400 magnification). […] Only cells with neuronal nuclei and intact membranes were counted as neurons.
as §2

Assay [4] has the same test system. The experiment in a line: Bilateral sensory neglect (BSN) task, Example 6. The assay is classed as in vivo, rat. As to conditions: 3 days (LP3); 6 and 20 days post injury. Here is the method:
as §1
Bilateral contusions of the medial prefrontal cortex were created by a pneumatic impactor device as previously described. […]
Experienced individuals who were blind to treatment conditions of the study conducted all histological and behavioral analyses. All data were tested for normality and homoschedasticity before being analyzed by parametric analysis of variance (ANOVA). MWM results were analyzed using separate mixed-factorial (4 groups×5 days) analysis of variance (ANOVA) on each of the two 5-day testing periods (acquisition and retention respectively). Results of the BSN task were analyzed using the mixed-factorial ANOVA (4 groups×2 post-injury trials). […]
Measures of attentional abilities, using a bilateral sensory neglect (BSN) task, were recorded one day prior to surgery (baseline) and on postsurgical days 6 and 20. […]

The next assay deals with ischemic injury. As to conditions: following ischemic injury in rats; cited from earlier work.

Consider `CC(=O)[C@H]1CC[C@H]2[C@@H]3CCC4=CC(=O)CC[C@]4(C)[C@H]3CC[C@]12C` [progesterone], for which the cerebral edema entry in assay [1] was “intermediate between injured controls and the allopregnanolone-treated injured rats”. Besides, in assay [2] (3 or 5 days), the “enlargement of the lateral ventricles” value is recorded as “did not have any effect on this measure”. For the same compound, the mean striatal area result in assay [2] (3 or 5 days) is listed as “No between-group differences”. Further, the necrotic cavity formation result in assay [2] (3 days (LP3)) is recorded as “tended to be smaller than in the brains of injured animals”; in assay [2] (5 days (LP5), P<0.05) it was “significant reductions in overall necrotic cavity formation”. The “injury-induced neuronal loss (STR, GP, DMN, VMN)” value in assay [3] (3 days (LP3)) and in assay [3] (5 days (LP5)) was “significant reduction of injury-induced neuronal loss in all brain regions examined” throughout. In addition, in assay [3] (5 days (LP5)), the “neuronal loss in the VMN” value is recorded as “more effective than 3 days at attenuating neuronal loss in the VMN; also recorded: significant reductions in cell loss of the VMN”. For the same compound, in assay [4], the BSN task performance entry is on record as “impaired on this task compared to control animals”. Further, the “cell damage and neurological deficit” value with ischemic injury was “reduce cell damage and neurological deficit”.
